Experimental data: US9216955B2, “Polymorphic form of Fexofenadine hydrochloride, intermediates and process for its preparation” ([…] S.R.L., priority 2010, dated 2015)

Conditions: solid form

CC(C)(C(=O)O)c1ccc(C(O)CCCN2CCC(C(O)(c3ccccc3)c3ccccc3)CC2)cc1.Cl (centres unmarked) [polymorph φ, 2-[4-[1-hydroxy-4-[4-(hydroxydiphenylmethyl)-1-piperidyl]-butyl]phenyl]-2-methylpropanoic acid]
deliquescence: not deliquescent
hygroscopicity: not hygroscopic
